Like-named read-outs stand apart in the source and are kept apart here.
Assays:
[1] = Mass median diameter of salbutamol sulphate particles; type: physicochemical
[2] = Fine particle fraction of salbutamol sulphate blended with Lactochem lactose (Example 7); type: physicochemical; conditions: after blending with Lactochem lactose

Row | mass median diameter [1] | fine particle fraction (<6.4 μm) [2] | mass median diameter ([1]; listed as elongated crystals (needle shaped) of salbutamol sulphate) | Substance
1 | 4.79 μm | 10.8 % recovered dose | – | salbutamol sulphate [micronised salbutamol sulphate]
2 | – | 22.8 % recovered dose | 5.49 μm | salbutamol sulphate [recrystallised salbutamol sulphate]

Reference: patent US20030118514A1, “Compositions for inhalation” (Glaxo Wellcome Inc., priority 1998, published 2003)
